In US20210221848A1, “POLYMYXIN DERIVATIVES AND THEIR USE IN COMBINATION THERAPY TOGETHER WITH DIFFERENT ANTIBIOTICS” (priority 2014, published 2021):
Converted amounts (≈) assume the structure as drawn. Where two headings read alike, the source gives them in different places. Numbered stars: 1 amine (or outer) side, 2 acyl side, 3 side chain; on linkers, the order of the positions; unused ones are H or OH. Bridge positions count the residues as written; N and C are the ends. Square brackets hold non-standard residues; d marks the D form. Peptide text beside a SMILES is read from it. X7 = CC(C)CN([C@@H](CN)C(=O)[*:2])[*:1]; aThr = C[C@H](O)[C@H](N)C(=O)O; Dab = NCC[C@H](N)C(=O)O

Assays:
[1] = system: A. baumannii
[2] = system: E. coli; experiment: MIC in the presence of a fixed concentration (2 μg/mL) of Rifampicin; type: cell-based, Escherichia coli; details: Rifampicin 2 μg/mL, Table 5D
[3] = system: K. pneumoniae
[4] = system: E. coli strains with elevated MICs to Polymyxin B; experiment: MIC against strains with elevated MICs to Polymyxin B; type: cell-based, Escherichia coli; details: Table 6D; for MIC E. coli 058: strain 058, elevated MIC to Polymyxin B; for MIC E. coli 059: strain 059, elevated MIC to Polymyxin B; for MIC E. coli 060: strain 060, elevated MIC to Polymyxin B; for MIC E. coli 061: strain 061, elevated MIC to Polymyxin B
How it was run: (§1)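 Reported MIC is the lower of duplicates agreeing within 2-fold, or the mode where compounds were tested repeatedly. Assays with greater than 2-fold duplicate variation were rejected. Colonies grown 18-24 hours on Mueller-Hinton agar were suspended to 0.5 McFarland as inoculum.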

[5] = system: P. aeruginosa strains with elevated MICs to Polymyxin B; experiment: as above; type: cell-based, Pseudomonas aeruginosa; details: Table 6D; for MIC P. aeruginosa 066: strain 066, elevated MIC to Polymyxin B; for MIC P. aeruginosa 067: strain 067, elevated MIC to Polymyxin B; for MIC P. aeruginosa 065: strain 065, elevated MIC to Polymyxin B
How it was run: as §1

[6] = system: K. pneumoniae strains with elevated MICs to Polymyxin B; experiment: as above; type: cell-based, Klebsiella pneumoniae; details: Table 6D; for MIC K. pneumoniae 062: strain 062, elevated MIC to Polymyxin B; for MIC K. pneumoniae 063: strain 063, elevated MIC to Polymyxin B; for MIC K. pneumoniae 064: strain 064, elevated MIC to Polymyxin B; for MIC K. pneumoniae 655: strain 655, elevated MIC to Polymyxin B
How it was run: as §1

[7] = system: E. coli
[8] = system: P. aeruginosa
[9] = system: K. pneumoniae; experiment: MIC in the presence of a fixed concentration (2 μg/mL) of Rifampicin; type: cell-based, Klebsiella pneumoniae; details: Rifampicin 2 μg/mL, Table 5D
Method: (§2) The inoculum was prepared by making a direct suspension of isolated colonies (selected from an 18-24 hour Mueller-Hinton agar plate) adjusted to the 0.5 McFarland standard. […] The assays were performed in duplicate. […] In cases where the duplicate values varied by less than 2-fold, the lower of the two values is reported. If a variation of greater than 2-fold was observed, the assay was considered non-valid. Several of the compounds were subjected to multiple tests, and where this is the case, the MIC reflects the modal value obtained.

[10] = system: A. baumannii; experiment: MIC in the presence of […] of rifampicin; type: cell-based, Acinetobacter baumannii; details: for MIC in combination with Rifampicin, A. baumannii ATCC BAA-747: A. baumannii ATCC BAA-747, Table 5D; for MIC in combination with Rifampicin, A. baumannii NCTC 13424: A. baumannii NCTC 13424, Table 5D
Method: as §2

[11] = system: A. baumanii strains with elevated MICs to Polymyxin B; experiment: MIC against strains with elevated MICs to Polymyxin B; type: cell-based, Acinetobacter baumannii; details: Table 6D; for MIC A. baumannii 053: strain 053, elevated MIC to Polymyxin B; for MIC A. baumannii 056: strain 056, elevated MIC to Polymyxin B; for MIC A. baumannii 068: strain 068, elevated MIC to Polymyxin B; for MIC A. baumannii 070: strain 070, elevated MIC to Polymyxin B
How it was run: as §1

[12] = system: HK-2 cell line; experiment: In vitro renal cell toxicity assay (resazurin reduction)
Method: MICs were determined as described herein. HK-2 cell IC50 values were determined as described herein. Values are reported relative to Polymyxin B.

[13] = absence of a second agent, Table 6B

Compound | MIC, A. baumannii ATCC BAA-747 [1, 13] | MIC, A. baumannii NCTC 13424 [1, 13] | MIC, K. pneumoniae ATCC 4352 [3, 13] | MIC, K. pneumoniae ATCC BAA-2146 [3, 13] | MIC E. coli 058 [4] | MIC E. coli 059 [4] | MIC E. coli 060 [4] | MIC E. coli 061 [4] | MIC P. aeruginosa 066 [5] | MIC P. aeruginosa 067 [5] | MIC K. pneumoniae 062 [6] | MIC K. pneumoniae 063 [6] | MIC K. pneumoniae 064 [6] | MIC, E. coli ATCC 25922 [7, 13] | MIC, E. coli NCTC 13441 [7, 13] | MIC, P. aeruginosa ATCC 27853 [8, 13] | MIC, P. aeruginosa CCUG 59347 [8, 13] | MIC A. baumannii 053 [11] | MIC A. baumannii 056 [11] | MIC A. baumannii 068 [11] | other results
2-(2-aminoethyl)- undecanoyl polymyxin B nonapeptide [Example D27] | 0.25 micrograms/mL | 1 micrograms/mL | 0.25 micrograms/mL | 0.5 micrograms/mL | 2 micrograms/mL | 2 micrograms/mL | 4 micrograms/mL | 16 micrograms/mL | 16 micrograms/mL | >64 micrograms/mL | 16 micrograms/mL | 64 micrograms/mL | 16 micrograms/mL | 0.125 micrograms/mL | 0.06 micrograms/mL | 0.5 micrograms/mL | 0.5 micrograms/mL | 64 micrograms/mL | 32 micrograms/mL | 2 micrograms/mL | MIC in combination with Rifampicin, E. coli ATCC 25922 [2]: 0.125 micrograms/mL; MIC K. pneumoniae 655 [6]: 64 micrograms/mL; MIC in combination with Rifampicin, K. pneumoniae ATCC 4352 [9]: 0.5 micrograms/mL; MIC in combination with Rifampicin, K. pneumoniae ATCC BAA-2146 [9]: 4 micrograms/mL; MIC in combination with Rifampicin, A. baumannii ATCC BAA-747 [10]: 1 micrograms/mL; MIC in combination with Rifampicin, A. baumannii NCTC 13424 [10]: 1 micrograms/mL; MIC A. baumannii 070 [11]: 4 micrograms/mL
2-aminomethyl- 4-methyl pentanoyl polymyxin E nonapeptide [Example D53] | – | – | – | – | – | – | – | – | – | – | – | – | – | – | – | – | – | – | – | – | MIC, A. baumannii ATCC BAA-747 ([1]; sole activity, Table 6C): 1 micrograms/mL; MIC, A. baumannii NCTC 13424 ([1]; sole activity, Table 6C): 2 micrograms/mL; MIC, K. pneumoniae ATCC 4352 ([3]; sole activity, Table 6C): 0.25 micrograms/mL; MIC, K. pneumoniae ATCC BAA-2146 ([3]; sole activity, Table 6C): 1 micrograms/mL; MIC, E. coli ATCC 25922 ([7]; sole activity, Table 6C): 1 micrograms/mL; MIC, E. coli NCTC 13441 ([7]; sole activity, Table 6C): 1 micrograms/mL; HK-2 IC50 rel to PMB* [12]: 18.2; MIC, P. aeruginosa ATCC 27853 ([8]; sole activity, Table 6C): 0.5 micrograms/mL; MIC, P. aeruginosa CCUG 59347 ([8]; sole activity, Table 6C): 1 micrograms/mL
CC(C)CC1CNCC1C(=O)N[C@H](C(=O)N[C@@H](CCN)C(=O)N[C@H]1CCNC(=O)[C@H]([C@@H](C)O)NC(=O)[C@H](CCN)NC(=O)[C@H](CCN)NC(=O)[C@H](CC(C)C)NC(=O)[C@@H](Cc2ccccc2)NC(=O)[C@H](CCN)NC1=O)[C@H](C)O (single isomer, unassigned) [Example D39, trans-4-(2-methylpropyl) pyrrolidine-3-carbonyl polymyxin B nonapeptide] | – | – | – | – | – | – | – | – | – | – | – | – | – | – | – | – | – | – | – | – | HK-2 IC50 rel to PMB [12]: 5.4
CC(C)CN[C@@H](CN)C(=O)N[C@H](C(=O)N[C@@H](CCN)C(=O)N[C@H]1CCNC(=O)[C@H]([C@@H](C)O)NC(=O)[C@H](CCN)NC(=O)[C@H](CCN)NC(=O)[C@H](CC(C)C)NC(=O)[C@@H](Cc2ccccc2)NC(=O)[C@H](CCN)NC1=O)[C@H](C)O [Example D51, (S)-2-(2-methylpropylamino) 3-aminopropanoyl polymyxin B nonapeptide] (H-[X7][aThr][Dab][Dab][Dab][dF]L[Dab][Dab]T; lactam 4-C) | – | – | – | – | – | – | – | – | – | – | – | – | – | – | – | – | – | – | – | – | MIC [1]: 1 µg/mL (≈ 0.905 µM); MIC [7]: 0.5 µg/mL (≈ 0.452 µM); HK-2 IC50 rel to PMB [12]: 34
(S)-1-(2- methylpropyl)- piperazine-2- carbonyl polymyxin E nonapeptide [Example D56] | – | – | – | – | – | – | – | – | – | – | – | – | – | – | – | – | – | – | – | – | MIC, A. baumannii ATCC BAA-747 ([1]; sole activity, Table 6C): 0.5 micrograms/mL; MIC, A. baumannii NCTC 13424 ([1]; sole activity, Table 6C): 0.5 micrograms/mL; MIC, K. pneumoniae ATCC 4352 ([3]; sole activity, Table 6C): 0.125 micrograms/mL; MIC, K. pneumoniae ATCC BAA-2146 ([3]; sole activity, Table 6C): 0.25 micrograms/mL; MIC, E. coli ATCC 25922 ([7]; sole activity, Table 6C): 0.25 micrograms/mL; MIC, E. coli NCTC 13441 ([7]; sole activity, Table 6C): 0.25 micrograms/mL; HK-2 IC50 rel to PMB* [12]: 22; MIC, P. aeruginosa ATCC 27853 ([8]; sole activity, Table 6C): 0.5 micrograms/mL; MIC, P. aeruginosa CCUG 59347 ([8]; sole activity, Table 6C): 1 micrograms/mL
(S)-1-octyl-piperazine- 2-carbonyl polymyxin B nonapeptide [Example D28] | 0.25 micrograms/mL | 1 micrograms/mL | 0.25 micrograms/mL | 0.5 micrograms/mL | 0.5 micrograms/mL | 0.5 micrograms/mL | 2 micrograms/mL | 4 micrograms/mL | 4 micrograms/mL | 32 micrograms/mL | 8 micrograms/mL | 16 micrograms/mL | 2 micrograms/mL | 0.125 micrograms/mL | 0.125 micrograms/mL | 0.5 micrograms/mL | 1 micrograms/mL | 32 micrograms/mL | 16 micrograms/mL | 4 micrograms/mL | MIC in combination with Rifampicin, E. coli ATCC 25922 [2]: 1 micrograms/mL; MIC in combination with Rifampicin, E. coli NCTC 13441 ([2]; E. coli NCTC 13441): 0.5 micrograms/mL; MIC P. aeruginosa 065 [5]: 0.5 micrograms/mL; MIC K. pneumoniae 655 [6]: 16 micrograms/mL; MIC in combination with Rifampicin, K. pneumoniae ATCC 4352 [9]: 0.5 micrograms/mL; MIC in combination with Rifampicin, K. pneumoniae ATCC BAA-2146 [9]: 2 micrograms/mL; MIC in combination with Rifampicin, A. baumannii ATCC BAA-747 [10]: 1 micrograms/mL; MIC in combination with Rifampicin, A. baumannii NCTC 13424 [10]: 1 micrograms/mL; MIC A. baumannii 070 [11]: 4 micrograms/mL
trans-4-(2- methylpropyl) pyrrolidine-3- carbonyl-L-Thr- L-Dap-polymyxin B heptapeptide [Example D68] | – | – | – | – | 8 micrograms/mL | 16 micrograms/mL | 8 micrograms/mL | 32 micrograms/mL | 16 micrograms/mL | >256 micrograms/mL | 64 micrograms/mL | 64 micrograms/mL | 16 micrograms/mL | – | – | – | – | >256 micrograms/mL | 128 micrograms/mL | 16 micrograms/mL | MIC, A. baumannii ATCC BAA-747 ([1]; sole activity, Table 6C): 0.25 micrograms/mL; MIC, A. baumannii NCTC 13424 ([1]; sole activity, Table 6C): 0.5 micrograms/mL; MIC, K. pneumoniae ATCC 4352 ([3]; sole activity, Table 6C): 0.125 micrograms/mL; MIC P. aeruginosa 065 [5]: 16 micrograms/mL; MIC, E. coli ATCC 25922 ([7]; sole activity, Table 6C): 0.25 micrograms/mL; MIC, E. coli NCTC 13441 ([7]; sole activity, Table 6C): 0.25 micrograms/mL; HK-2 IC50 rel to PMB* [12]: 5.3; MIC, P. aeruginosa ATCC 27853 ([8]; sole activity, Table 6C): 0.5 micrograms/mL; MIC, P. aeruginosa CCUG 59347 ([8]; sole activity, Table 6C): 0.5 micrograms/mL
trans-4-(2- methylpropyl) pyrrolidine-3-carbonyl polymyxin B nonapeptide [Example D38] | >8 micrograms/mL | 2 micrograms/mL | 4 micrograms/mL | 8 micrograms/mL | – | – | – | – | – | – | – | – | – | 8 micrograms/mL | 8 micrograms/mL | 1 micrograms/mL | 2 micrograms/mL | – | – | – | HK-2 IC50 rel to PMB [12]: 6.3
